Data on three compounds can be found in patent US20020107197A1, “Ligands for G protein coupled receptors and methods of using them” (priority 2000, published 2002).

Test [1] addresses T1, GPR4 (Homo sapiens, UniProt P46093).
T1 construct: were used to generate full length GPR4, which was digested with EcoRI and Xba I and cloned into the pBs3HA vector; expressed in transfected cells
Kind of test: Internalization of GPR4-GFP in HEK293 cells (confocal microscopy). The settings on record: 1 μM lipid, 37° C., GPR4-GFP HEK293 cells. Format: cell-based. As for the experimental part:
pGPR4-GFP stably expressing HEK293 cells were cultured in 6 cm tissue culture dishes in RPMI1640 with 10% FBS. After 16-24 h serum starvation, cells were treated with different lipids at 37° C. for 2 h. Cells were washed with cold PBS and fixed with 4% paraformaldehyde in PBS. The subcellular localization of GPR4-GFP protein was visualized under a Leica TV confocal fluorescence microscope with a 63× oil immersion lens (Wetzler, Heidelberg, Germany). The excitation and emission wavelengths were 488 nm and 515-540 nm, respectively.
G protein coupled receptors undergo agonist-dependent desensitization and internalization. When HEK293 cells are transfected with the pEGFP-N1 vector, GFP protein is expressed in the cytosol of the cells. The GPR4-GFP and TDAG8-GFP fusion proteins, on the other hand, was expressed only on the plasma membrane.

Test [2] addresses T2, TDAG8 (Homo sapiens, UniProt Q8IYL9).
T2 construct: expressed in transfected cells
Kind of test: SRE luciferase reporter in TDAG8-transfected HEK293 cells. Format: cell-based. The settings on record: lipid 1 μM, TDAG8-transfected HEK293 cells.

Another test deals with Swiss 3T3 cells. Kind of test: DNA synthesis ([3H]thymidine incorporation) in parental and GFP-infected Swiss 3T3 cells. Type of test: cell-based. As for the experimental part: The effect of SPC and LPC on DNA synthesis was measured using [^3H] thymidine incorporation. Briefly, GPR4-ires-GFP- and GFP-Swiss 3T3 cells were plated in 96-well plates, serum-starved for 24 h, and treated with SPC, LPC, or other lipids in serum-free DMEM for 24 h. Cells were incubated with 0.75 μCi/ml [^3H]thymidine in serum-free DMEM for the last 18 h. Cells were harvested onto filter papers presoaked in 1% polyethylenimine using the automated cell harvester HARVEST 96. Incorporated [^3H]thymidine was counted in a 1450 Microbeta Trilux Liquid Scintillation and Luminescence Counter (Perkin-Elmer-Wallac, Inc.).

In test [3] the target is T1, GPR4. Description: Cell migration in modified Boyden chamber, GPR4-ires-GFP vs GFP Swiss 3T3 cells. Format: cell-based. Particulars: for increase of cell migration over GFP-Swiss 3T3 cells: 100 nM, lower chamber only; for chemokinetic assay: cell motility vs controls: lipid 100 nM in both upper and lower chambers, GFP or GFP-GPR4 Swiss 3T3 cells. As for the experimental part:
Chemotaxis was measured in a modified Boyden chamber assay. Briefly, different lipids were added to the lower chambers. GPR4-ires-GFP- and GFP-Swiss 3T3 cells were serum starved for 4 h, trypsinized, and seeded in the upper chambers of Boyden-transwell plates (Corning Inc., Corning, N.Y.). The chambers were incubated for 6 to 8 h. The number of cells that migrated to the lower face of the membrane was counted in 4 random fields. Data are represented as the average ±SD of three independent experiments. For the chemokinetic assay, the same concentrations of lipids were added to both the upper and lower chambers. For Rho inhibition studies, C3-exoenxyme was transiently transfected into Swiss 3T3 cells and cell migration assays were performed 48 hours later.

A further test addresses T3, endogenous PAF receptor (Homo sapiens, UniProt P25105).
T3 construct: endogenous in cells; host or cells: MCF10A (parental and GPR4-GFP-transfected)
Kind of test: Calcium assay of the endogenous PAF receptor in MCF10A cells. Type of test: cell-based. The settings on record: parental MCF10A cells. As for the experimental part: Measurement of [Ca^2+]i, was performed as described previously in Xu et al. (2000) Nat Cell Biol 2, 261-267. Briefly, pGPR4-GFP-transfected MCF10A cells were grown in specialized glass-bottom dishes (Bioptech, Inc., Butler, Pa.) and loaded with fura-2 in HEPES buffered saline. Using a dual-wavelength spectrofluorometer (RFK-6002, Photon Technology Int'l, So. Brunswick, N.J.) coupled to an inverted fluorescence microscope (Olympus, IX-70, Lake Success, N.Y.), GFP-positive cells were identified using an excitation wavelength of 488 nm, a dichroic 505 nm long-pass filter and an emitter filter at bandpass of 535 nm (Chroma Technology, Brattleboro, Vt.). Measurements of [Ca^2+]i were performed on individual GPR4-GFP positive cells at excitation wavelengths of 340 and 380 nm and an emission wavelength of 510 nm. Conversion of the 340/380 ratio value into [Ca^2+]i in nM was estimated by comparing the cellular fluorescence ratio with ratios acquired using fura-2 (free acid) in buffers containing known Ca^2+ concentrations. [Ca^2+]i was then calculated as described by Grynkiewicz et al. (1985) J Biol Chem 260, 3440-3450. All calcium assays were performed in the presence of 1 mM EGTA in the assay buffers. Therefore, intracellular calcium release, not calcium influx, was analyzed.
Therefore, it is unlikely that the increase in calcium induced by LPC was mediated by a PAF receptor.

The target in test [4] is T2, TDAG8. Kind of test: Binding of phospholipids to TDAG8. As for the experimental part:
To characterize the binding of SPC and LPC to GPR4 and TDAG8, we conducted radioligand binding assays. CHO cells were chosen for GPR4 binding assays, since HEK293 cells express relatively high levels of endogenous GPR4. CHO cells stably transfected with empty vector or GPR4 were serum starved for 20 h, then collected after exposure to 2 mM EDTA in PBS. The pelleted cells were stored at −80° C. until use. Binding assays were performed essentially as described previously (Xu et al. (2000) Nat Cell Biol 2, 261-267), except binding was performed at 4° C. Briefly, frozen cells (10^6 cells/ml) were homogenized in a binding buffer. Assays were performed in 96-well plates in triplicate with 100 μl cell homogenate (equivalent to 10^5 cells/well). Different amounts of [^3H]SPC or [^3H]16:0-LPC were added to the cell homogenates in 50 μl of binding buffer, in the presence or absence of cold SPC or 16:0-LPC, or other competitors. The plates were incubated at 4° C. for 120 min, unless otherwise indicated. Cell-bound [^3H]SPC or [^3H]LPC was collected onto a filter (Printed Filtermat A, Wallac, Gaithersburg, Md.) using an automated cell harvester (HARVESTER 96, Tomtec, Orange, Conn.). Specific binding was calculated by subtraction of nonspecific binding (binding detected in the presence of 100-fold excess unlabeled SPC or 16:0-LPC) from the total binding.
Using functional and binding assays, we have identified the ligands for TDAG8.

Test [5] deals with T2, TDAG8. Description: TDAG8 receptor internalization. Type of test: cell-based. An excerpt:
G protein coupled receptors undergo agonist-dependent desensitization and internalization.

Another test has as its target T4, OGR1 (Homo sapiens, UniProt Q15743).
T4 construct: expressed in transfected cells
Description: MAP kinase reporter system in OGR1 co-transfected cells. Format: cell-based.

T2 sequence (Q8IYL9 whole entry): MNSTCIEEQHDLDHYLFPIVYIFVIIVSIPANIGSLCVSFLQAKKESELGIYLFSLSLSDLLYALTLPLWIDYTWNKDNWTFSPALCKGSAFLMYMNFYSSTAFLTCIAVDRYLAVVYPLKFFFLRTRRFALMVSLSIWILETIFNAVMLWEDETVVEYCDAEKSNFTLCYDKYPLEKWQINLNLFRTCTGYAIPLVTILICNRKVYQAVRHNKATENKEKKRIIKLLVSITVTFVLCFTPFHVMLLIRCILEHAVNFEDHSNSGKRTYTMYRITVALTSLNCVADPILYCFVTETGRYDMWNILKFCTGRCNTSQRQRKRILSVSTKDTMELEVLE
T1 sequence (P46093 whole entry): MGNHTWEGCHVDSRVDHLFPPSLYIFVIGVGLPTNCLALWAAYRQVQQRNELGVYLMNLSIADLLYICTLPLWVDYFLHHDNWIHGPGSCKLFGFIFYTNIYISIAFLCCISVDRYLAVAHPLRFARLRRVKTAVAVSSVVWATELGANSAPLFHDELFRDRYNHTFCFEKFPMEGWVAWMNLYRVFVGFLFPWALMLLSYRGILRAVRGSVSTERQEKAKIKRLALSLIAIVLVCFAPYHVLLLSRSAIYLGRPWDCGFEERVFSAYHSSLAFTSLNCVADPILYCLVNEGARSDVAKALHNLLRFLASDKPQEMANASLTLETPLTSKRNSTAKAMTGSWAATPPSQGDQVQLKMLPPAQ
T4 sequence (Q15743 whole entry, species assumed): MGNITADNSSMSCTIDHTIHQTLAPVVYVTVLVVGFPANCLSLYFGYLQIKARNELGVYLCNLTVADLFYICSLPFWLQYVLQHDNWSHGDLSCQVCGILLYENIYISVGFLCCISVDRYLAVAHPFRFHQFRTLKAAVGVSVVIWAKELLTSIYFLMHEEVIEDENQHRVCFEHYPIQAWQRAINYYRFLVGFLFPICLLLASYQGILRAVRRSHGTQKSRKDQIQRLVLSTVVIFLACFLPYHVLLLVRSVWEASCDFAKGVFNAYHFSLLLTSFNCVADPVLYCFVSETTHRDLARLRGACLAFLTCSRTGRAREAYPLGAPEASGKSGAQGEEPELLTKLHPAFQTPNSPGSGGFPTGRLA
T3 sequence (P25105 whole entry): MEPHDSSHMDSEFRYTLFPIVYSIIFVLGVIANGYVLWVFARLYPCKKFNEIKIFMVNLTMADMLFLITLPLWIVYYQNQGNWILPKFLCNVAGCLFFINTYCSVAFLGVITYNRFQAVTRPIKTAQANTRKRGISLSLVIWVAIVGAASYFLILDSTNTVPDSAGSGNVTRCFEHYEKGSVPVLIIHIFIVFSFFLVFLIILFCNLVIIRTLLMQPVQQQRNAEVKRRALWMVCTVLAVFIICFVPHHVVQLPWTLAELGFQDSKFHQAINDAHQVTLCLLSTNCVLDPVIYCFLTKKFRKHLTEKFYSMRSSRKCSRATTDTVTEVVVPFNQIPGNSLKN

On to `CCCCCCCCCCCCCCCC(=O)OC[C@@H](O)COP(=O)([O-])OCC[N+](C)(C)C` [16:0-LPC], for which the “internalization of GPR4” value at GPR4 [1] is reported as “induced internalization of GPR4”. In addition, the “activation of SRE reporter” value at TDAG8 [2] is 3.1 fold. For the same compound, the “DNA synthesis response (in words)” value with Swiss 3T3 cells (GFP-expressing cells) was “did not respond significantly”. In addition, on GPR4 [3], the “increase of cell migration over GFP-Swiss 3T3 cells” value is given as 1.7 fold and the “chemokinetic assay: cell motility vs controls” value is “did not significantly change cell motility”.

`CCCCCCCCCCCCC/C=C/[C@@H](O)[C@@H](N)COP(=O)([O-])OCC[N+](C)(C)C` [SPC, Sphingosylphosphorylcholine]: the “calcium increase through the endogenous PAF receptor in parental cells” value on endogenous PAF receptor was “not able to induce an increase in calcium”. The “internalization of GPR4” value on GPR4 [1] is “induced internalization of GPR4”. Moreover, at TDAG8 [4], the “binding to TDAG8” value is “able to bind to TDAG8”. Further, the TDAG8 receptor internalization entry at TDAG8 [5] was “induced TDAG8 receptor internalization”. Further, the “activation of SRE reporter” value at TDAG8 [2] is on record as 4 fold. Besides, the “MAP kinase activation (reporter)” value at OGR1 is on record as “only achieved by SPC”. Besides, the “increase of DNA synthesis” value in the test with Swiss 3T3 cells (3 μM, parental and GFP-infected cells) is “approximately 6.3 fold”. At GPR4 [3], the “increase of cell migration over GFP-Swiss 3T3 cells” value is on record as 2.0 fold and the “chemokinetic assay: cell motility vs controls” value was “did not significantly change cell motility”.

For lysophosphatidylcholine [LPC], the “calcium increase through the endogenous PAF receptor in parental cells” value on endogenous PAF receptor was “not able to induce an increase in calcium”. For the same compound, the “binding to TDAG8” value at TDAG8 [4] is recorded as “able to bind to TDAG8”. Moreover, the TDAG8 receptor internalization result on TDAG8 [5] is listed as “not”. The “MAP kinase activation (reporter)” value on OGR1 was “weakly inhibitory”.
